We go through one molecule from US20160318844A1, “PROSTACYCLIN COMPOUNDS, COMPOSITIONS AND METHODS OF USE THEREOF” (Insmed Incorporated, priority 2015, published 2016).

SMILES strings stand for the structures.

The test system of the data set is beagle dogs. Nature of the data set: Clinical signs in dogs after inhalation. The conditions noted are these: targeted dose of 18 μg/kg. The method, then: Dosimetry was performed in propofol-anesthetized dogs in which nebulized drugs were introduced into a mixing chamber interposed on the inspiratory limb of a canine respirator. Technical trials were performed before each experiment to measure the concentration of drug (μg/L) delivered for each breath. The inhaled drug dose (μg/kg) was calculated using the formula: Inhaled Drug Dose (μg/kg)=Drug Conc. (μg/L)×Minute Ventilation (L/min.)×Time (min.)/Body Weight (kg). […] Clinical signs were monitored over this 72 hr. period.
Dosimetry was performed in propofol-anesthetized, artificially ventilated dogs in which nebulized drugs were introduced into a mixing chamber interposed on the inspiratory limb of the respirator. Technical trials were performed before each experiment measuring the concentration of drug (μg/L) per breath, minute ventilation and time required to achieve a targeted pulmonary dose. […] Clinical signs (cough, rapid shallow breathing, emesis and pale gums) were also monitored.

In the case of `CCCCCCCCCCCCOC(=O)COc1cccc2c1C[C@H]1C[C@@H](O)[C@H](CC[C@@H](O)CCCCC)[C@H]1C2` [Compound C12-TR, dodecyl-treprostinil], the adverse clinical signs entry was “Adverse clinical signs were seen”.
